Assay results reported in patent US9745291B2, “PRMT5 inhibitors containing a dihydro- or tetrahydroisoquinoline and uses thereof” (Epizyme, Inc., priority 2012, dated 2017).

Key:
PRMT5/MEP50 = PRMT5/MEP50 (Homo sapiens (Human), UniProt O14744); test: PRMT5 Biochemical Assay (PRMT5/MEP50 enzyme assay on peptide substrate, 3H-SAM Flashplate); details: PRMT5 biochemical assay; read-out: Biochemical IC50
From the text: S-adenosylmethionine (SAM), S-adenosylhomocysteine (SAH), bicine, KCl, Tween20, dimethylsulfoxide (DMSO), bovine skin gelatin (BSG), and Tris(2-carboxyethyl)phosphine hydrochloride solution (TCEP) were purchased from Sigma-Aldrich at the highest level of purity possible. ^3H-SAM was purchase from American Radiolabeled Chemicals with a specific activity of 80 Ci/mmol. 384-well streptavidin Flashplates were purchased from PerkinElmer.
Peptide representative of human histone H4 residues 1-15 was synthesized with a C-terminal linker-affinity tag motif and a C-terminal amide cap by 21st Century Biochemicals. […] The sequence was Ac-[…][K-Biot]-amide (SEQ ID NO.:3).
Full-length human MEP50 (NM_024102) clone was amplified from a human testis cDNA library incorporating a 5′ sequence encoding a 6-histidine tag (MHHHHHH)(SEQ ID NO.:5) fused directly to Arg 2 of MEP50. The amplified genes were sublconed into pENTR/D/TEV (Life Technologies) and subsequently transferred by Gateway™ attL×attR recombination to pDEST8 baculvirus expression vector (Life Technologies).
Recombinant baculovirus and Baculovirus-Infected Insect Cells (BIIC) were generated according to Bac-to-Bac kit instructions (Life Technologies) and Wasilko, 2006, respectively. Protein over-expression was accomplished by infecting exponentially growing Spodoptera frugiperda (SF9) cell culture at 1.2×10^6 cell/ml with a 5000 fold dilution of BIIC stock. Infections were carried out at 27° C. for 72 hours, harvested by centrifugation, and stored at −80° C. for purification.
Flag-PRMT5/6His-MeP50 was eluted with 300 mM Imidazole in the same buffer. […] Reference: Wasilko, D. J. and S. E. Lee: “TIPS: titerless infected-cells preservation and scale-up” Bioprocess J., 5 (2006), pp. 29-32.
General Procedure for PRMT5/MEP50 Enzyme Assays on Peptide Substrates.
The assays were all performed in a buffer consisting of 20 mM Bicine (pH=7.6), 1 mM TCEP, 0.005% BSG, and 0.002% Tween20, prepared on the day of use. Compounds in 100% DMSO (1 ul) were spotted into a polypropylene 384-well V-bottom plates (Greiner) using a Platemate Plus outfitted with a 384-channel head (Thermo Scientific). DMSO (1 ul) was added to Columns 11, 12, 23, 24, rows A-H for the maximum signal control and 1 ul of SAH, a known product and inhibitor of PRMT5/MEP50, was added to columns 11, 12, 23, 24, rows I-P for the minimum signal control. A cocktail (40 ul) containing the PRMT5/MEP50 enzyme and the peptide was added by Multidrop Combi (Thermo-Fisher). The compounds were allowed to incubate with PRMT5/MEP50 for 30 min at 25 degrees Celsius, then a cocktail (10 ul) containing ^3H-SAM was added to initiate the reaction (final volume=51 ul).

Z-138 cell line = test: Z-138 Proliferation Assay (Cell Titer Glo, 5 days); format: cell-based; details: Homo sapiens, Z-138, 120 h, Z-138 cells
From the text: [formula] Z-138 Proliferation Assay
Z-138 suspension cells were purchased from ATCC (American Type Culture Collection, Manassas, Va.). RPMI/Glutamax medium, penicillin-streptomycin, heat inactivated fetal bovine serum were purchased from Life Technologies, Grand Island, N.Y., USA. V-bottom polypropylene 384-well plates were purchased from Greiner Bio-One, Monroe, N.C., USA. Cell culture 384-well white opaque plates were purchased from Perkin Elmer, Waltham, Mass., USA. Cell-Titer Glo® was purchased from Promega Corporation, Madison, Wis., USA. SpectraMax M5 plate reader was purchased from Molecular Devices LLC, Sunnyvale, Calif., USA.
Z-138 suspension cells were maintained in growth medium (RPMI 1640 supplemented with 10% v/v heat inactivated fetal bovine serum and cultured at 37° C. under 5% CO2 Under assay conditions, cells were incubated in assay medium (RPMI 1640 supplemented with 10% v/v heat inactivated fetal bovine serum and 100 units/mL penicillin-streptomycin) at 37° C. under 5% CO2.
For the assessment of the effect of compounds on the proliferation of the Z-138 cell line, exponentially growing cells were plated in 384-well white opaque plates at a density of 10,000 cells/ml in a final volume of 50 μl of assay medium. A compound source plate was prepared by performing triplicate nine-point 3-fold serial dilutions in DMSO, beginning at 10 mM (final top concentration of compound in the assay was 20 μM and the DMSO was 0.2%). A 100 nL aliquot from the compound stock plate was added to its respective well in the cell plate. […] After addition of compounds, assay plates were incubated for 5 days at 37° C., 5% CO2, relative humidity >90%.
Cell viability was measured by quantitation of ATP present in the cell cultures, adding 35 μl of Cell Titer Glo® reagent to the cell plates. Luminescence was read in the SpectraMax M5 microplate reader. The concentration of compound inhibiting cell viability by 50% was determined using a 4-parametric fit of the normalized dose response curves.

Sequence of PRMT5/MEP50 (O14744 other isoform, or with tags, fused parts or gaps): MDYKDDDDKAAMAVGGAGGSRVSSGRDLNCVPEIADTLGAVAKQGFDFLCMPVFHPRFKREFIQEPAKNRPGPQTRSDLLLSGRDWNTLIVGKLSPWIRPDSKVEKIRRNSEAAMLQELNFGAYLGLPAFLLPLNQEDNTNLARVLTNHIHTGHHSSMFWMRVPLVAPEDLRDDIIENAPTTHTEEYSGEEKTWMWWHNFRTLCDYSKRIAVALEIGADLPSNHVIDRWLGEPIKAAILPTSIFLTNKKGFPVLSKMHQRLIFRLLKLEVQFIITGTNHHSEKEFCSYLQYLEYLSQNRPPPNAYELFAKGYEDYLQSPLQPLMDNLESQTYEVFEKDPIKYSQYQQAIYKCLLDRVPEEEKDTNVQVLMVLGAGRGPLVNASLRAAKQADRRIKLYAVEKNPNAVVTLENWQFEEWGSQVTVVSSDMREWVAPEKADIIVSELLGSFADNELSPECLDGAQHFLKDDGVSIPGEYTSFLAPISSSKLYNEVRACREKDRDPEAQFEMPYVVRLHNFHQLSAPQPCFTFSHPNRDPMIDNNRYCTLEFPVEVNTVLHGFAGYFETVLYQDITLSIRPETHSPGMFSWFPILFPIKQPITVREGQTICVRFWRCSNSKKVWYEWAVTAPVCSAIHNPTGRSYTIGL
Sequence of PRMT5/MEP50 (Q9BQA1 other isoform, or with tags, fused parts or gaps partner): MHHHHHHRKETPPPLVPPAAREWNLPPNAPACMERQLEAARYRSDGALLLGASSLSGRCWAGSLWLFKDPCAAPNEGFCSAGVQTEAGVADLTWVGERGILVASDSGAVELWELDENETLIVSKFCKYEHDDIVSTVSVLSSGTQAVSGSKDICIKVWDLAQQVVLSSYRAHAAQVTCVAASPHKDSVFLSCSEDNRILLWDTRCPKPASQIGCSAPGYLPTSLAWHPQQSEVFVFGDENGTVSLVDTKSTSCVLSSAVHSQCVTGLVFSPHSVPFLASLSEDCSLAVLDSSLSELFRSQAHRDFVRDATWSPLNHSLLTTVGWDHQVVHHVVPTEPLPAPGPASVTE

Compound | IC50 (PRMT5/MEP50) [nM] | EC50 (Z-138 cell line) [nM]
O=C(COc1ccccc1N1CCNCC1)NCC(O)CN1CCc2ccccc2C1 (centres unmarked) [Compound 79] | < 100 | 1000 to 10000
CC(Oc1ccccc1NS(C)(=O)=O)C(=O)NCC(O)CN1CCc2ccccc2C1 (centres unmarked) [Compound 157] | 1000 to 10000 | 
CN1CCC(n2ncc3cc(OCC(=O)NCC(O)CN4CCc5ccccc5C4)ccc32)C1 (centres unmarked) [Compound 96] | < 100 | 
O=C(CCc1nc2ccccc2[nH]1)NC[C@H](O)CN1CCc2ccccc2C1 [Compound 175, (S)-3-(1H-benzo[d]imidazol-2-yl)-N-(3-(3,4-dihydroisoquinolin-2(1H)-yl)-2-hydroxypropyl)propanamide] | < 100 | 
CN(C)c1ccc2cccc(OCC(=O)NC[C@@H](O)CN3CCc4ccccc4C3)c2n1 [Compound 105] | < 100 | 
O=C(NC[C@H](O)CN1CCc2ccccc2C1)[C@H]1Cc2ccccc2CN1 [Compound 185] | 101 to 1000 | 
O=C(NC[C@H](O)CN1CCc2ccccc2C1)C1COc2ccccc2O1 (some centres unmarked) [Compound 183] | 101 to 1000 | 
CC(=O)Nc1ncccc1OCC(=O)NCC(O)CN1CCc2ccccc2C1 (centres unmarked) [Compound 147] | > 10000 | 
O=C(COc1c(CN2CCOCC2)ccc2cccnc12)NC[C@H](O)CN1CCc2ccccc2C1 [Compound 94] | < 100 | 
C[C@@H](Oc1cccc2cccnc12)C(=O)NC[C@H](O)CN1CCc2ccccc2C1 [Compound 73, (R)—N—((S)-3-(3,4-dihydroisoquinolin-2(1H)-yl)-2-hydroxypropyl)-2-(quinolin-8-yloxy)propanamide] | < 100 | 
O=C(NC[C@H](O)CN1CCc2ccccc2C1)C1CCCc2ccccc21 (some centres unmarked) [Compound 180] | 1000 to 10000 | 
O=C(CC1Cc2ccccc2C1)NC[C@H](O)CN1CCc2ccccc2C1 [Compound 179] | 101 to 1000 | 
CS(=O)(=O)c1ccccc1OCC(=O)NCC(O)CN1CCc2ccccc2C1 (centres unmarked) [Compound 37, N-(3-(3,4-dihydroisoquinolin-2(1H)-yl)-2-hydroxypropyl)-2-(2-(methylsulfonyl)phenoxy)acetamide] | < 100 | 
O=C(COc1cccc2ccc(N3CCOCC3)nc12)NCC(O)CN1CCc2ccccc2C1 (centres unmarked) [Compound 48, N-(3-(3,4-dihydroisoquinolin-2(1H)-yl)-2-hydroxypropyl)-2-((2-morpholinoquinolin-8-yl)oxy)acetamide] | < 100 | 
Cn1c(CCC(=O)NC[C@@H](O)CN2CCc3ccccc3C2)nc2ccccc21 [Compound 268] | 1000 to 10000 | 
CS(=O)(=O)Nc1ncccc1OCC(=O)NCC(O)CN1CCc2ccccc2C1 (centres unmarked) [Compound 139] | > 10000 | 

Compound | IC50 (PRMT5/MEP50) [nM] | EC50 (Z-138 cell line) [nM]
O=C(Cc1c[nH]c2ccccc12)NC[C@H](O)CN1CCc2ccccc2C1 [Compound 182] | 101 to 1000 | 
CS(=O)(=O)c1cccc(OCC(=O)NCC(O)CN2CCc3ccccc3C2)c1 (centres unmarked) [Compound 47] | < 100 | 
O=C(COC1CCCOC1)NCC(O)CN1CCc2ccccc2C1 (centres unmarked) [Compound 166] | 1000 to 10000 | 
CN(c1ccccc1OCC(=O)NCC(O)CN1CCc2ccccc2C1)S(C)(=O)=O (centres unmarked) [Compound 155] | < 100 | 
O=C(COc1cccc2ccccc12)NCC(O)CN1CCc2ccccc2C1 (centres unmarked) [Compound 66, N-(3-(3,4-dihydroisoquinolin-2(1H)-yl)-2-hydroxypropyl)-2-(naphthalen-1-yloxy)acetamide] | < 100 | 
CC(=O)Nc1cccnc1OCC(=O)NCC(O)CN1CCc2ccccc2C1 (centres unmarked) [Compound 128] | > 50000 | 
Cn1ccnc1-c1cccc(OCC(=O)NC[C@@H](O)CN2CCc3ccccc3C2)c1 [Compound 187] | 1000 to 10000 | 
[2H]C1([2H])Cc2ccccc2C([2H])([2H])N1C[C@@H](O)CNC(=O)CCc1nc2ccccc2[nH]1 [Compound 251] | 101 to 1000 | 
CN(C)S(=O)(=O)c1ccccc1OCC(=O)NCC(O)CN1CCc2ccccc2C1 (centres unmarked) [Compound 109] | < 100 | 
CN(C)CCOc1ccccc1OCC(=O)NC[C@H](O)CN1CCc2ccccc2C1 [Compound 88] | < 100 | 
O=C(COc1ccccc1OCCN1CCOCC1)NC[C@H](O)CN1CCc2ccccc2C1 [Compound 86] | < 100 | 
O=C(COc1cccc2cccnc12)NCC(O)CN1CCc2ccccc2C1 (centres unmarked) [Compound 6, N-(3-(3,4-dihydroisoquinolin-2(1H)-yl)-2-hydroxypropyl)-2-(quinolin-8-yloxy)acetamide] | < 100 | 101 to 1000
NS(=O)(=O)c1ccccc1OCC(=O)NCC(O)CN1CCc2ccccc2C1 (centres unmarked) [Compound 65] | < 100 | 
O=C(COc1cccc2c1OCCO2)NCC(O)CN1CCc2ccccc2C1 (centres unmarked) [Compound 100] | < 100 | 
O=C(COc1cccc2c1CCCN2Cc1ccccc1)NCC(O)CN1CCc2ccccc2C1 (centres unmarked) [Compound 4] | < 100 | 
O=C(COc1cccc2cccnc12)NC[C@@H](O)CN1CCc2ccccc2C1 [Compound 45, (R)—N-(3-(3,4-dihydroisoquinolin-2(1H)-yl)-2-hydroxypropyl)-2-(quinolin-8-yloxy)acetamide] | < 100 | 101 to 1000
